# Key:
# [1] = system: SIBO; details: about 400 mg TID for about 10 days; cited from earlier work
# [2] = system: intestinal transit across the proximal gut; assay: Intestinal transit in dogs with duodenal and midgut fistulas; format: in vivo; details: last 30 min of 90-min perfusion, mean±SE, buffer control 53.77±5.96%
# Experimental: The inventor determined the effect of hydrogen sulfide on intestinal transit. Five dogs were equipped with duodenal and midgut fistulas. With occluding Foley catheters in the distal limb of the 2 fistulas, the small intestine was compartmentalized into the proximal and distal ½ of the gut. The proximal gut was perfused with pH 7.0 phosphate buffer with 0 or 1 mM NaHS (a donor of H2S) at 2 ml/min while the distal gut was perfused with pH 7.0 phosphate buffer with 0 or 60 mM oleate at 2 ml/min for 90 minutes. 60 mM oleate was used to trigger the ileal brake response to slow intestinal transit. Intestinal transit across the proximal gut was measured by the cumulative % recovery of a radioactive marker out of the midgut fistula during the last 30 min of the 90-min perfusion (data=mean±SE).
# [3] = system: gut bacteria; details: Norfloxacin treatment; cited from earlier work
# [4] = inhaled; cited from earlier work
# [5] = rat model of HPS, chronic bile duct ligation; cited from earlier work
# [6] = single patient with HPS, enhanced oxygenation; cited from earlier work
# [7] = 100 patients, mild to moderate AD, doxycycline and rifampin together; cited from earlier work
compound,measurement,setting,value
CO[C@H]1/C=C/O[C@@]2(C)Oc3c(C)c(O)c4c(O)c(c5c(nc6cc(C)ccn65)c4c3C2=O)NC(=O)/C(C)=C\C=C\[C@H](C)[C@H](O)[C@@H](C)[C@@H](O)[C@@H](C)[C@H](OC(C)=O)[C@@H]1C [rifaximin],efficacy in achieving successful partial eradication of SIBO,[1],60-70%
"CCCCCCCC/C=C\CCCCCCCC(=O)O [fat, oleate]",Intestinal transit: cumulative % recovery of a radioactive marker out of the midgut fistula,"[2]; fat (60 mM oleate) in distal 1/2 of gut, ileal brake",16.00±3.92%
CCn1cc(C(=O)O)c(=O)c2cc(F)c(N3CCNCC3)cc21 [Norfloxacin],iNOS expression,[3],normalized
same,"severity of intrapulmonary vascular dilatation, reduction",[3],about ½
S [Hydrogen sulfide],Intestinal transit: cumulative % recovery of a radioactive marker out of the midgut fistula,[2]; H2S perfused in distal compartment,60.72±8.97%
same,Intestinal transit: cumulative % recovery of a radioactive marker out of the midgut fistula,"[2]; H2S perfused in proximal compartment (1 mM NaHS, pH 7.0 phosphate buffer, 2 ml/min)",37.78±3.80%
same,level that can be fatal (respiratory failure and pulmonary edema),[4],> 600 ppm
"COC(=O)[C@@H](N)CCCNC(=N)N[N+](=O)[O-] [L-NAME, nomega-nitro-L-arginine methylester]",hypoxia,[5],improved but did not correct hypoxia
same,extra walking distance,[6],92 M
CO[C@H]1/C=C/O[C@@]2(C)Oc3c(C)c(O)c4c(O)c(c(/C=N/N5CCN(C)CC5)c(O)c4c3C2=O)NC(=O)/C(C)=C\C=C\[C@H](C)[C@H](O)[C@@H](C)[C@@H](O)[C@@H](C)[C@H](OC(C)=O)[C@@H]1C [rifampin],cognitive worsening,[7],reduce cognitive worsening

# Source: US20090233888A1, “TREATMENT OF DISEASE CONDITIONS THROUGH MODULATION OF HYDROGEN SULFIDE PRODUCED BY SMALL INTESTINAL BACTERIAL OVERGROWTH” (priority 2005, published 2009)
